Data: ChEMBL document CHEMBL1142267, “Optimization of alpha-ketooxazole inhibitors of fatty acid amide hydrolase” (J Med Chem, 2008)
pIC50, pKi: −log10 of the molar value.

Assays:
[1] = Selectivity for rat recombinant FAAH over TGH
[2] = Selectivity for rat recombinant FAAH over KIAA1363
[3] = biological target: T1, Neutral cholesterol ester hydrolase 1 (Homo sapiens, UniProt Q6PIU2); experiment: Inhibition of KIAA1363
T1 sequence (Q6PIU2 whole entry): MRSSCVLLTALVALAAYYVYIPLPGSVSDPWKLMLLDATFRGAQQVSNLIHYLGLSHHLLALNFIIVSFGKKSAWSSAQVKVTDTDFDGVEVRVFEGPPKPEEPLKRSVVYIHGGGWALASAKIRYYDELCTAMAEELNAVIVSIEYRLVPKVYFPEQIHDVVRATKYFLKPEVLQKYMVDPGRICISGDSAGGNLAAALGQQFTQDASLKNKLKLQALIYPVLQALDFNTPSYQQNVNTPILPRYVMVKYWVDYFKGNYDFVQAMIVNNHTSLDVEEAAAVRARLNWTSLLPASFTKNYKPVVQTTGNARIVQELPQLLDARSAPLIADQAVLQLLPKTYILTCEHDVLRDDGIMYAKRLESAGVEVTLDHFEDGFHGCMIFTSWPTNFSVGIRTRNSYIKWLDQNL

[4] = biological target: T2, Liver carboxylesterase 1 (Homo sapiens, UniProt P23141)
T2 sequence (P23141 whole entry): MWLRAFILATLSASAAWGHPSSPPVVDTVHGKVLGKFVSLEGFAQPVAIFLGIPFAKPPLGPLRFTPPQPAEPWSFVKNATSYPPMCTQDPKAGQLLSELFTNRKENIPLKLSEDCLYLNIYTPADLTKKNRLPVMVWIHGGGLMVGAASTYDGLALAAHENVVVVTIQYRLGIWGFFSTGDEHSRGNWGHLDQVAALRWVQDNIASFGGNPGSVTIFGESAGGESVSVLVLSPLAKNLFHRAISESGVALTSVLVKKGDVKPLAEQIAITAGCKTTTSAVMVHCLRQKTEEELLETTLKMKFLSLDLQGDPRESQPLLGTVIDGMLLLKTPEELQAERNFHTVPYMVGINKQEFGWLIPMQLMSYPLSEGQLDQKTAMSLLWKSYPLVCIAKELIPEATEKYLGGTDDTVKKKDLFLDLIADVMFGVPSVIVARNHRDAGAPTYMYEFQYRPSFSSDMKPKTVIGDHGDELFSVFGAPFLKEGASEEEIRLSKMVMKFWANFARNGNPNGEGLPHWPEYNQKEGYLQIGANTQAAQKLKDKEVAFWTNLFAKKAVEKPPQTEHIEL

[5] = biological target: T3, Fatty-acid amide hydrolase 1 (Rattus norvegicus, UniProt P97612); experiment: Inhibition of rat recombinant FAAH expressed in Escherichia coli
T3 sequence (P97612 whole entry): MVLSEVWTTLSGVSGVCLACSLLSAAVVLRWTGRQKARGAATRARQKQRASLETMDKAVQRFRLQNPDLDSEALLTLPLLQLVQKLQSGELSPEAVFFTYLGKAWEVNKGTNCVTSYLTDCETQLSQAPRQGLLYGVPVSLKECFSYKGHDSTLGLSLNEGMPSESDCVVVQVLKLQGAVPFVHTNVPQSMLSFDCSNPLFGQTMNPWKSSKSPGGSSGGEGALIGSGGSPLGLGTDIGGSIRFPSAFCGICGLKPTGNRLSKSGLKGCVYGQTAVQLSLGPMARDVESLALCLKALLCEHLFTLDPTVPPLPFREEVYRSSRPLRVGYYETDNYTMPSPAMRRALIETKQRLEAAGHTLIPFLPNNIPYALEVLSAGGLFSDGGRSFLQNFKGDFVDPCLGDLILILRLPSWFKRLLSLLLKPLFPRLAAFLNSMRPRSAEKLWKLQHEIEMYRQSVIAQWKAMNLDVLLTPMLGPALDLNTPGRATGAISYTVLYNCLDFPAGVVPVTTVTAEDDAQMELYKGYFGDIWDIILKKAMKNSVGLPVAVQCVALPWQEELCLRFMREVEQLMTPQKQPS

Structure (SMILES) | Ratio IC50 [1] | Ratio IC50 [2] | pIC50 [3] | pIC50 [4] | pIC50 [5] | pKi [5] | also measured
O=C(CCCCCCc1ccccc1)c1ncc(-c2cccc(-c3nnn[nH]3)n2)o1 | > 200 | > 200 | < 4.00 | < 4.00 | 6.30 |  | 
O=C(CCc1ccc(Oc2ccccc2)cc1)c1ncc(I)o1 |  |  |  |  |  | 8.00 | 
COC(=O)c1cccc(-c2cnc(C(O)CCc3ccc(-c4ccccc4)cc3)o2)n1 (stereo unspecified) |  |  |  |  |  | 5.05 | 
O=C(CCc1ccc(COc2ccccc2)cc1)c1ncc(-c2ccccn2)o1 | 1000 | > 50000 | < 4.00 | 5.70 | 8.70 |  | 
O=C(CCc1ccc(Oc2ccccc2)cc1)c1ncc(-c2ccccn2)o1 |  |  | < 4.00 | 6.70 | 8.70 |  | 
O=C(CCc1ccc(-c2ccccc2)cc1)c1ncc(C(=O)C(F)(F)F)o1 |  |  |  |  |  | 8.10 | 
O=C(CCCCCCc1ccccc1)c1ncco1 |  |  |  |  | 5.60 |  | 
NC(=O)c1cnc(C(=O)CCc2ccc(Oc3ccccc3)cc2)o1 |  |  |  |  |  | 8.18 | 
O=C(CCc1ccc(COc2ccccc2)cc1)c1ncc(-c2cccc(-c3nnn[nH]3)n2)o1 | 500 | > 550 | < 4.00 | 4.05 | 6.74 |  | 
N#Cc1cnc(C(=O)CCc2ccc(-c3ccccc3)cc2)o1 | 26 | 64000 | 4.19 | 7.59 | 9.00 |  | Selectivity ratio [2]: > 1000
O=C(O)c1cccc(-c2cnc(C(=O)CCc3ccc(-c4ccccc4)cc3)o2)n1 | > 17000 | > 17000 | < 4.00 | < 4.00 | 8.22 |  | 
O=C(O)c1cccc(-c2cnc(C(=O)CCCCCCc3ccccc3)o2)n1 | > 1000 | > 1000 |  |  | 7.00 |  | 
COC(=O)c1cnc(C(=O)CCc2ccc(-c3ccccc3)cc2)o1 |  |  |  |  |  | 8.82 | 
O=C(CCc1ccc(-c2ccc(CN3CCCCC3)cc2)cc1)c1ncco1 |  |  |  |  |  | 7.60 | 
CN(C)C(=O)c1cnc(C(=O)CCc2ccc(-c3ccccc3)cc2)o1 |  |  |  |  |  | 8.52 | 
O=C(O)c1cnc(C(=O)CCc2ccc(COc3ccccc3)cc2)o1 | 740 | > 2000 | < 4.00 | 4.43 | 7.30 | 7.66 | 
COC(=O)c1cccc(-c2cnc(CCCc3ccc(-c4ccccc4)cc3)o2)n1 |  |  |  |  |  | 5.15 | 
O=C(O)c1ccc(-c2cnc(C(O)CCc3ccc(-c4ccccc4)cc3)o2)nc1 (stereo unspecified) |  |  |  |  |  | 5.00 | 
COC(=O)c1cnc(C(=O)CCc2ccc(COc3ccccc3)cc2)o1 |  |  |  |  |  | 8.80 | 
NC(=O)c1cnc(C(=O)CCc2ccc(COc3ccccc3)cc2)o1 |  |  |  |  |  | 8.35 | 
O=C(O)c1cccc(-c2cnc(CCCc3ccc(-c4ccccc4)cc3)o2)n1 |  |  |  |  |  | 5.00 | 
O=C(O)c1cnc(C(=O)CCCCCCc2ccccc2)o1 | 1000 | > 50000 |  | 5.70 | 8.70 |  | 
COC(=O)c1cc(-c2cnc(C(=O)CCc3ccc(-c4ccccc4)cc3)o2)ccn1 |  |  |  |  |  | 8.82 | 
O=C(CCc1ccc(-c2ccccc2)cc1)c1ncc(C(F)(F)F)o1 |  |  |  |  |  | 9.15 | 
O=C(CCc1ccc(-c2ccccc2)cc1)c1ncc(-c2ccccn2)o1 |  |  | < 4.00 | 5.92 |  |  | 
CC(C)(C)OC(=O)N1CCC(Oc2ccc(CCC(=O)c3ncc(-c4cccc(C(=O)O)n4)o3)cc2)CC1 |  |  |  |  |  | 6.92 | 
O=C(CCc1ccc(-c2ccccc2)cc1)c1ncc(I)o1 |  |  |  |  |  | 8.40 | 
O=C(O)c1cccc(-c2cnc(C(=O)CCc3ccc(Oc4ccccc4)cc3)o2)n1 | > 5000 | > 5000 | < 4.00 | < 4.00 | 7.70 |  | 
